Results published in patent US20210401798A1, “LIPOXIN A4 ANALOGS AND USES THEREOF” (The Brigham and Women's Hospital, Inc., priority 2018, published 2021).
One block for each compound: values may come before it.

What was measured:
peritoneal lavage cells = assay: Cell count in mouse peritonitis model (zymosan); type: in vivo
[1] = target: T1, human recombinant CB1 receptor (Homo sapiens, UniProt P21554); assay: CB1 radioligand binding assay
T1 construct: expressed in transfected cells; host or cells: Chem cells (membrane homogenates)
Method: (§1) The binding affinity (% inhibition, K) of each of Compounds (1) and (2) for the CB1 and CB2 receptors was determined by a competitive radioligand binding assay. […] By comparison, no binding of the free acid to either the CB1 or CB2 receptors was observed (FIG. 5). The radioligand binding assays were performed as described below.
CB1 Radioligand Binding Assay: Cell membrane homogenates (5 μg protein) prepared from Chem cells expressing human recombinant CB1 receptor were incubated for 30 min at 22° C. with 2 nM [^3H]CP 55940 (CB1/CB2 radioligand) in the absence or presence of the test compound in a buffer containing 50 mM Tris-HCl (pH 7.4), 5 mM MgCl2, 2.5 mM EDTA and 0.3% BSA. Nonspecific binding is determined in the presence of 10 μM WIN 55212-2. Each compound was tested in 8 concentrations. For each concentration, % Inhibition was determined as a function of radioligand specific binding to the CB1 receptor. The K was determined from the concentration-response curve of each tested compound.
(§2) Further details for determining the binding affinity of compounds for a cannabinoid receptor by competitive radioligand binding can be found in the literature, for example, in Rinaldi-Carmona M, et al. Characterization of two cloned human CB1 cannabinoid receptors isoform. […]

[2] = target: T2, human recombinant CB2 receptor (Homo sapiens, UniProt P34972); assay: CB2 radioligand binding assay
T2 construct: expressed in transfected cells; host or cells: CHO cells (membrane homogenates)
Method: as §1
CB2 Radioligand Binding Assay: Cell membrane homogenates (12 μg protein) prepared from CHO cells expressing human recombinant CB2 receptor were incubated for 120 min at 37° C. with 0.8 nM [^3H]WIN 55212-2 (CB1/CB2 radioligand) in the absence or presence of the test compound in a buffer containing 50 mM Hepes/Tris (pH 7.4), 5 mM MgCl2, 2.5 mM EGTA and 0.1% BSA. Nonspecific binding was determined in the presence of 5 μM WIN 55212-2. Each compound was tested in 8 concentrations. For each concentration, % Inhibition was determined as a function of radioligand specific binding to the CB2 receptor. The K was determined from the concentration-response curve of each tested compound.
as §2

[3] = Rat pharmacokinetic study; type: in vivo; details: SD rats, IV 0.3 mg/kg
Method: Sprague Dawley (SD) rats (n=3/group) were administered either compound (1) or compound (2) orally at 10 mg/kg (5% ethanol, 5% VE-TPGS, 90% PEG400) or intravenously at 0.3 mg/kg (5% NMP, 95% PEG400). The resulting individual and mean plasma concentration-time was measured for the free acid, compound (2), with the data provided in Tables 4-7.

[4] = target: T3, human GPR32 (RvD1 Receptor) (Homo sapiens, UniProt O75388); assay: Beta-Arrestin PathHunter GPR32 activation assay; type: cell-based; details: CHO-GPR32 cells, 1 h at 37° C., chemiluminescence
T3 construct: host or cells: CHO cells (CHO-GPR32)
Method: (§3) Ligand receptor interactions were monitored using the Beta-Arrestin PathHunter eXpress System™ (DiscoverX, Fremont, Calif.) and carried out with CHO cells stably overexpressing recombinant human GPR32 receptors. CHO-GPR32 cells were plated onto 96-well plates 24 h prior to experiments. Test compounds at indicated concentrations were incubated with cells for 1 h at 37° C. and receptor activation was determined by measuring chemiluminescence using the PathHunter detection kit. The results of this experiment are expressed as % increase of chemiluminescence above vehicle control (FIG. 2). Results are mean from 3 or 4 independent experiments and 3 replicates in each experiment.

[5] = target: T4, human ALX/FPR2 (LXA4 Receptor) (Homo sapiens, UniProt P25090); assay: Beta-Arrestin PathHunter ALX/FPR2 activation assay; type: cell-based; details: HEK-ALX cells, 1 h at 37° C., chemiluminescence
T4 construct: host or cells: HEK cells (HEK-ALX)
T4 sequence (P25090 1-351): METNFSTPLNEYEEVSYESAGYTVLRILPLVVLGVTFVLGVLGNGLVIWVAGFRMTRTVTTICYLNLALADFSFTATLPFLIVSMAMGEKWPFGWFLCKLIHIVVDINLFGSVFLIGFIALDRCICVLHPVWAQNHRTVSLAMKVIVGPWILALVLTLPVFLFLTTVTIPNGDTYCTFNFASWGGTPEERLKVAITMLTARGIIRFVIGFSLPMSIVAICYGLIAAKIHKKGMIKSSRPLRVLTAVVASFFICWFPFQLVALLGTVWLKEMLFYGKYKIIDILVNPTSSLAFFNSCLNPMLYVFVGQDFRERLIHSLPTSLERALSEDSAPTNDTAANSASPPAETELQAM
Method: as §3, with “HEK” for “CHO”, “ALX” for “GPR32”, “HEK-ALX” for “CHO-GPR32”, “Results” for “The results of this experiment”, “3).” for “2).”

Human Mϕ = assay: Human macrophage phagocytosis of live E. coli; type: cell-based; details: BacLight Green-labeled E. coli, fluorescence
Method: Human Mϕ were plated onto chamber slides (0.1×10^6 cells/well), incubated with RvD1, compound (10 nM), or vehicle alone for 15 min at 37° C., followed by addition of BacLight Green-labeled E. coli to initiate phagocytosis. Fluorescent images were then recorded every 10 min for 120 min (37° C.) using Keyence BZ-9000 (BIOREVO) inverted fluorescence phase-contrast microscope (40× objective) equipped with a monochrome/color switching camera using BZ-II Viewer software (Keyence, Itasca, Ill., USA). Green fluorescence intensity was quantified using BZ-II Analyzer. Results are recordings of mean fluorescence intensity (MFI) from one representative donor (FIG. 6). Human Mϕ were plated onto 96-well plates (5×10^4 cells/well), incubated with RvD1, compound (1 pM-100 nM) or vehicle alone for 15 min at 37° C., followed by addition of BacLight Green-labeled E. coli (E. coli:Mϕ=50:1) to initiate phagocytosis. One hour later, fluorescence associated with Mϕ was determined using a microplate reader. Results are expressed as percent increase above vehicle (E. coli alone); mean from 4 separate experiments (FIG. 7).

PMN = PMN clearance in vivo, E. coli initiated peritonitis; parameters: species or system mouse
Method: FVB mice (male, 6 wks old) were inoculated with E. coli (10^5 CFU). […] Total leukocytes were enumerated using light microscopy and PMN numbers were determined by flow cytometry. […] Resolution indices were calculated using PMN numbers.

[6] = FVB mice, 100 ng i.p. 12 h after inoculation
[7] = 24 h post-zymosan, 0.1 μg/mouse

T1 sequence (P21554 whole entry): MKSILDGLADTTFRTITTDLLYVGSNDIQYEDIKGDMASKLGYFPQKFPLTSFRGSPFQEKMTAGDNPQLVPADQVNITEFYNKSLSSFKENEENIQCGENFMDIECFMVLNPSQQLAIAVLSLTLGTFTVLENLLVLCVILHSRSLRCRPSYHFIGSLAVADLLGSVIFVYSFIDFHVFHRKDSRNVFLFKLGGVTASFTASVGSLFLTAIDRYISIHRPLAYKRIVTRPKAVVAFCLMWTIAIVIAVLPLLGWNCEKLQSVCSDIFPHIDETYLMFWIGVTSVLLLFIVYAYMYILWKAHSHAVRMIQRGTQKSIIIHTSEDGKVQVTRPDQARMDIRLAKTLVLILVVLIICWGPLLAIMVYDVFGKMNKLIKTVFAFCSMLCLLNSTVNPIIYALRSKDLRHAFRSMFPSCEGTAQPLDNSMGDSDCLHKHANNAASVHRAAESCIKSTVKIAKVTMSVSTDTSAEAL
T2 sequence (P34972 whole entry): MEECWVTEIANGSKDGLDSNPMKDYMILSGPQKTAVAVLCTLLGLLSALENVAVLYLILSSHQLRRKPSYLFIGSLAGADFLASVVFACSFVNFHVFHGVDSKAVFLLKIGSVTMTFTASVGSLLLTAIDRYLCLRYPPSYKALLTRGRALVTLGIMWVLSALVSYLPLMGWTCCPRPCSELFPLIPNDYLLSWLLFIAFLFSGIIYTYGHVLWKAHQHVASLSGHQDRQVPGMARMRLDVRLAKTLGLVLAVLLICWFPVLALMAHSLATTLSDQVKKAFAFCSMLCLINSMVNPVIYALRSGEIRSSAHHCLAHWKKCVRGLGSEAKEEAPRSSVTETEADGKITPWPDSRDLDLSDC
T3 sequence (O75388 whole entry): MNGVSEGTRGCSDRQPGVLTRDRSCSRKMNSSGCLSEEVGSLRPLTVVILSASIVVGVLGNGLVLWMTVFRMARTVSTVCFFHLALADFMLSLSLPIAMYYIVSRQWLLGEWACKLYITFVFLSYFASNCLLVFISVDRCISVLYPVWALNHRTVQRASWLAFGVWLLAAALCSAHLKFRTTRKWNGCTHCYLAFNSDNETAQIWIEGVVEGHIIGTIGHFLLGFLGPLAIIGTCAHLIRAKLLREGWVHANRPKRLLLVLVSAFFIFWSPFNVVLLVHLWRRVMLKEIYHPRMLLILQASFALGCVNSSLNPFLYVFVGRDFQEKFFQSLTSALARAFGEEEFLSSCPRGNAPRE

SMILES: CC/C=C\C[C@H](O)/C=C/C=C\C=C\C=C\[C@@H](O)[C@@H](O)C/C=C\CCC(=O)O [RvD1, resolvin D1, reference compound]
Estimated PMNs (peritoneal lavage cells; 3 h post-zymosan, 0.1 μg/mouse): 5723.25 10^3/ml
Granulocytes Counted (100 cells) (peritoneal lavage cells; 3 h post-zymosan, 0.1 μg/mouse): 89.8
Mononuclear Counted (100 cells) (peritoneal lavage cells; 3 h post-zymosan, 0.1 μg/mouse): 10.8
Nucleated Cells (peritoneal lavage cells; 3 h post-zymosan, 0.1 μg/mouse): 6375.00 10^3/ml
Estimated PMNs (peritoneal lavage cells; 3 h post-zymosan, 1 μg/mouse): 6685.13 10^3/ml
Granulocytes Counted (100 cells) (peritoneal lavage cells; 3 h post-zymosan, 1 μg/mouse): 96.3
Mononuclear Counted (100 cells) (peritoneal lavage cells; 3 h post-zymosan, 1 μg/mouse): 3.8
Nucleated Cells (peritoneal lavage cells; 3 h post-zymosan, 1 μg/mouse): 6232.50 10^3/ml
Estimated PMNs (peritoneal lavage cells; 24 h post-zymosan, 1 μg/mouse): 11496.23 10^3/ml
Granulocytes Counted (100 cells) (peritoneal lavage cells; 24 h post-zymosan, 1 μg/mouse): 86.6
Mononuclear Counted (100 cells) (peritoneal lavage cells; 24 h post-zymosan, 1 μg/mouse): 13.4
Nucleated Cells (peritoneal lavage cells; 24 h post-zymosan, 1 μg/mouse): 13267.50 10^3/ml

binding to CB1 receptor ([1]; radioligand binding): no binding
binding to CB2 receptor ([2]; radioligand binding): no binding
plasma Concentration of compound (2), Individual ([3]; 12 hr, 0.3 mg/kg): BQL
plasma Concentration of compound (2), Individual ([3]; 24 hr): BQL
plasma Concentration of compound (2), Mean ([3]; 24 hr): BQL
SMILES: O=C(O)COC[C@H](O)[C@H](O)/C=C/C=C/C#C/C=C/[C@H](O)COc1ccc(F)cc1 [Compound (2), 2-(((2S,3R,4E,6E,10E,12S)-13-(4-fluorophenoxy)-2,3,12-trihydroxytrideca-4,6,10-trien-8-yn-1-yl)oxy)acetic acid, reference compound]

activation of human GPR32 (RvD1 Receptor) [4]: activates
activation of human ALX/FPR2 (LXA4 Receptor) [5]: activates
Ki ([1]; [3H]CP 55940 competition, read-out: K (binding affinity) CB1 receptor): > 5000 nM
Ki ([2]; [3H]WIN 55212-2 competition, read-out: K (binding affinity) CB2 receptor): 630 nM
plasma Concentration of compound (2), Individual ([3]; 8 hr, 0.3 mg/kg): BQL
plasma Concentration of compound (2), Individual ([3]; 12 hr, 0.3 mg/kg): BQL
plasma Concentration of compound (2), Individual ([3]; 24 hr): BQL
plasma Concentration of compound (2), Mean ([3]; 24 hr): BQL
SMILES: O=C1COC[C@@H]([C@H](O)/C=C/C=C/C#C/C=C/[C@H](O)COc2ccc(F)cc2)O1 [Compound (1), (S)-6-((1R,2E,4E,8E,10S)-11-(4-fluorophenoxy)-1,10-dihydroxyundeca-2,4,8-trien-6-yn-1-yl)-1,4-dioxan-2-one]
human macrophage phagocytosis of live E. coli (Human Mϕ): enhances
Resolution Interval (PMN; [6]): 11 h
T50 (PMN; [6]): 23 h
Tmax (PMN; [6]): 12 h
reduction of Tmax (PMN; vs E. coli alone): 50%
Estimated PMNs (peritoneal lavage cells; 3 h post-zymosan, 0.1 μg/mouse): 5977.50 10^3/ml
Granulocytes Counted (100 cells) (peritoneal lavage cells; 3 h post-zymosan, 0.1 μg/mouse): 96.4
Mononuclear Counted (100 cells) (peritoneal lavage cells; 3 h post-zymosan, 0.1 μg/mouse): 3.6
Nucleated Cells (peritoneal lavage cells; 3 h post-zymosan, 0.1 μg/mouse): 6165.00 10^3/ml
Estimated PMNs (peritoneal lavage cells; 3 h post-zymosan, 10 μg/mouse): *4012.13 10^3/ml
Granulocytes Counted (100 cells) (peritoneal lavage cells; 3 h post-zymosan, 10 μg/mouse): 95.0
Mononuclear Counted (100 cells) (peritoneal lavage cells; 3 h post-zymosan, 10 μg/mouse): 5.0
Nucleated Cells (peritoneal lavage cells; 3 h post-zymosan, 10 μg/mouse): *4237.50 10^3/ml
Estimated PMNs (peritoneal lavage cells; [7]): 14672.70 10^3/ml
Granulocytes Counted (100 cells) (peritoneal lavage cells; [7]): 88.8
Mononuclear Counted (100 cells) (peritoneal lavage cells; [7]): 11.2
Nucleated Cells (peritoneal lavage cells; [7]): 16380.00 10^3/ml
